Laboratory results reported in US12410160B2 (Gilead Sciences, Inc., priority 2021, dated 2025).
Several values for one entry are separate records, joined by “and”; a condition that tells them apart may be missing. Equal values may be shown once.

Tests used:
human KHK-A = human KHK-A (Homo sapiens (Human), UniProt P50053); experiment: KHK Biochemical Assay (IC50), ADP-Glo, KHK-A; details: ADP-Glo; average of at least two separate assays
How it was run: (§1)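 His-tagged enzyme expressed in BL21 (DE3), Ni-NTA purified. Compounds, serially diluted 1:3 in DMSO, pre-incubated 30 min with enzyme in 50 mM Hepes pH 7.4, 140 mM KCl, 5 mM MgCl2, 0.01% Triton-X, then ATP and fructose added; 4 h at room temperature. ADP formation read by ADP-Glo luminescence.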

human KHK-C = human KHK-C (Homo sapiens (Human), UniProt P50053); experiment: KHK Biochemical Assay (IC50), ADP-Glo, KHK-C; details: ADP-Glo; average of at least two separate assays
Sequence of human KHK-C (P50053 whole entry): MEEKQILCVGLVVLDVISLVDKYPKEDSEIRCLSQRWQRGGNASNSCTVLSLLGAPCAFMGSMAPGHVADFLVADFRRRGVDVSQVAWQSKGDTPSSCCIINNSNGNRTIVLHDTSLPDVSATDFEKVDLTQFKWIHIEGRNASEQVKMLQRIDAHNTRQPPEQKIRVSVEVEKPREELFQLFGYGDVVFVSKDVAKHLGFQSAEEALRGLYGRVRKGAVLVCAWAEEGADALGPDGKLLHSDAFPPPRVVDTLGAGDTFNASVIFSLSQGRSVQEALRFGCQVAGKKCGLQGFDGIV
How it was run: as §1

Sequence of human KHK-A (P50053 other isoform, or with tags, fused parts or gaps): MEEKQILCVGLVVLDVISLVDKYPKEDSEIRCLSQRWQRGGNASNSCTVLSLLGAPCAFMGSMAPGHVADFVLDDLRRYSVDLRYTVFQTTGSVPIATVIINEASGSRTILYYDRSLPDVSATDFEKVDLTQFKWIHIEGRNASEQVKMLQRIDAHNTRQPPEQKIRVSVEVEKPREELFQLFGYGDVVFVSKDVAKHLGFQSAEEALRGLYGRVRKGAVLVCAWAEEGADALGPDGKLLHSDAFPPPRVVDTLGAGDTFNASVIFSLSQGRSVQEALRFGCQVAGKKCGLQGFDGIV

SMILES: Cc1noc(C)c1S(=O)(=O)Nc1cccc(-c2nc(N3CC[C@@H]3C)nc3c2CCC3)c1 [Example 76, (S)-3,5-dimethyl-N-(3-(2-(2-methylazetidin-1-yl)-6,7-dihydro-5H-cyclopenta[d]pyrimidin-4-yl)phenyl)isoxazole-4-sulfonamide]
- IC50 (human KHK-A): 1150 nM
- IC50 (human KHK-C): 876 nM

SMILES: C[C@H]1CCN1c1nc2c(c(-c3cccc(C(=O)N4CC[C@H]4C(=O)O)c3)n1)CCC2 [Example 77, (S)-1-(3-(2-((S)-2-methylazetidin-1-yl)-6,7-dihydro-5H-cyclopenta[d]pyrimidin-4-yl)benzoyl)azetidine-2-carboxylic acid]
- IC50 (human KHK-A): 285 nM
- IC50 (human KHK-C): 315 nM

SMILES: C[C@H]1CCN1c1nc2c(c(-c3cccc(C(=O)N4CC[C@@H]4C(=O)O)c3)n1)CCC2 [Example 78, (R)-1-(3-(2-((S)-2-methylazetidin-1-yl)-6,7-dihydro-5H-cyclopenta[d]pyrimidin-4-yl)benzoyl)azetidine-2-carboxylic acid]
- IC50 (human KHK-A): 193 nM and 134 nM
- IC50 (human KHK-C): 239 nM and 129 nM

SMILES: CC(=O)Nc1ncc(S(=O)(=O)Nc2cccc(-c3nc(N4CC[C@@H]4C)nc4c3CCC4)c2)s1 [Example 84, (S)—N-(5-(N-(3-(2-(2-methylazetidin-1-yl)-6,7-dihydro-5H-cyclopenta[d]pyrimidin-4-yl)phenyl)sulfamoyl)thiazol-2-yl)acetamide]
- IC50 (human KHK-A): 296 nM
- IC50 (human KHK-C): 279 nM

SMILES: C[C@H]1CCN1c1nc2c(c(-c3cc(C(N)=O)ns3)n1)CCC2 [Example 85, (S)-5-(2-(2-methylazetidin-1-yl)-6,7-dihydro-5H-cyclopenta[d]pyrimidin-4-yl)isothiazole-3-carboxamide]
- IC50 (human KHK-A): 1120 nM
- IC50 (human KHK-C): 1370 nM

SMILES: C[C@H]1[C@H](N)CN1c1nc2c(c(-c3ccc(C(N)=O)cc3)n1)CCC2 [Example 93]
- IC50 (human KHK-A): > 5000 nM
- IC50 (human KHK-C): > 5000 nM

SMILES: c1ccc(-c2nc(C3CC3)nc3c2CCC3)cc1 [Example 96, 2-cyclopropyl-4-phenyl-6,7-dihydro-5H-cyclopenta[d]pyrimidine]
- IC50 (human KHK-A): 4660 nM
- IC50 (human KHK-C): > 5000 nM

SMILES: c1ccc(-c2nc(C3CCC3)nc3c2CCC3)cc1 [Example 97, 2-cyclobutyl-4-phenyl-6,7-dihydro-5H-cyclopenta[d]pyrimidine]
- IC50 (human KHK-A): 937 nM
- IC50 (human KHK-C): 2230 nM

SMILES: c1ccc(-c2nc(C3CC4CCC3C4)nc3c2CCC3)cc1 (stereo not shown) [Example 98, 2-(bicyclo[2.2.1]heptan-2-yl)-4-phenyl-6,7-dihydro-5H-cyclopenta[d]pyrimidine]
- IC50 (human KHK-A): > 5000 nM
- IC50 (human KHK-C): > 5000 nM

SMILES: c1ccc(-c2nc(C3CNC3)nc3c2CCC3)cc1 [Example 99, 2-(azetidin-3-yl)-4-phenyl-6,7-dihydro-5H-cyclopenta[d]pyrimidine]
- IC50 (human KHK-A): > 5000 nM
- IC50 (human KHK-C): > 5000 nM

SMILES: Cc1nnc(-c2ccc(-c3nc(N4CC[C@@H]4C)nc4c3CCC4)cc2)o1 [Example 100, (S)-2-methyl-5-(4-(2-(2-methylazetidin-1-yl)-6,7-dihydro-5H-cyclopenta[d]pyrimidin-4-yl)phenyl)-1,3,4-oxadiazole]
- IC50 (human KHK-A): 161 nM
- IC50 (human KHK-C): 161 nM

SMILES: C[C@H]1CCN1c1nc2c(c(-c3ccc(-c4nccn4C)cc3)n1)CCC2 [Example 101, (S)-4-(4-(1-methyl-1H-imidazol-2-yl)phenyl)-2-(2-methylazetidin-1-yl)-6,7-dihydro-5H-cyclopenta[d]pyrimidine]
- IC50 (human KHK-A): 69.1 nM
- IC50 (human KHK-C): 119 nM

SMILES: C[C@H]1CCN1c1nc2c(c(-c3ccc(-n4cccn4)cc3)n1)CCC2 [Example 102, (S)-4-(4-(1H-pyrazol-1-yl)phenyl)-2-(2-methylazetidin-1-yl)-6,7-dihydro-5H-cyclopenta[d]pyrimidine]
- IC50 (human KHK-A): 279 nM
- IC50 (human KHK-C): 420 nM

SMILES: C[C@H]1CCN1c1nc2c(c(-c3ccc(-c4ccn[nH]4)cc3)n1)CCC2 [Example 103, (S)-4-(4-(1H-pyrazol-5-yl)phenyl)-2-(2-methylazetidin-1-yl)-6,7-dihydro-5H-cyclopenta[d]pyrimidine]
- IC50 (human KHK-A): 707 nM
- IC50 (human KHK-C): 1280 nM

SMILES: CC1CN(c2nc3c(c(-c4ccc(C(N)=O)cc4)n2)CCC3)C1C (stereo not shown) [Example 105, 4-(2-(2,3-dimethylazetidin-1-yl)-6,7-dihydro-5H-cyclopenta[d]pyrimidin-4-yl)benzamide]
- IC50 (human KHK-A): 253 nM
- IC50 (human KHK-C): 205 nM

SMILES: C[C@@H]1[C@@H](C)CN1c1nc2c(c(-c3ccc(C(N)=O)cc3)n1)CCC2 [Example 108]
- IC50 (human KHK-A): 594 nM
- IC50 (human KHK-C): 466 nM

SMILES: C[C@@H]1CN(c2nc3c(c(-c4ccc(C(N)=O)cc4)n2)CCC3)[C@@H]1C [Example 109, 4-(2-((2R,3R)-2,3-dimethylazetidin-1-yl)-6,7-dihydro-5H-cyclopenta[d]pyrimidin-4-yl)benzamide]
- IC50 (human KHK-A): 3200 nM
- IC50 (human KHK-C): 2540 nM

SMILES: Cc1nc2cc(-c3nc(N4CC[C@@H]4C)nc4c3CCC4)ccc2s1 [Example 110, (S)-2-methyl-5-(2-(2-methylazetidin-1-yl)-6,7-dihydro-5H-cyclopenta[d]pyrimidin-4-yl)benzo[d]thiazole]
- IC50 (human KHK-A): 322 nM
- IC50 (human KHK-C): 136 nM

SMILES: C#CC1CCN1c1nc2c(c(-c3ccc(C(N)=O)cc3)n1)CCC2 (stereo not shown) [Example 111, 4-(2-(2-ethynylazetidin-1-yl)-6,7-dihydro-5H-cyclopenta[d]pyrimidin-4-yl)benzamide]
- IC50 (human KHK-A): 186 nM
- IC50 (human KHK-C): 152 nM

SMILES: C[C@H]1[C@H](O)CN1c1nc2c(c(-c3cccc(C4CC4C(N)=O)c3)n1)CCC2 (stereo partly drawn) [Example 112, 2-(3-(2-((2S,3R)-3-hydroxy-2-methylazetidin-1-yl)-6,7-dihydro-5H-cyclopenta[d]pyrimidin-4-yl)phenyl)cyclopropane-1-carboxamide]
- IC50 (human KHK-A): 103 nM
- IC50 (human KHK-C): 68.8 nM

SMILES: C[C@H]1CCN1c1nc2c(c(-c3cccc(C45CCC(C4)C5C(=O)O)c3)n1)CCC2 (stereo partly drawn) [Example 115, 1-(3-(2-((S)-2-methylazetidin-1-yl)-6,7-dihydro-5H-cyclopenta[d]pyrimidin-4-yl)phenyl)bicyclo[2.1.1]hexane-5-carboxylic acid]
- IC50 (human KHK-A): 94.1 nM
- IC50 (human KHK-C): 109 nM

SMILES: C[C@H]1CCN1c1nc2c(c(-c3cc(C(N)=O)cc(C(N)=O)c3)n1)CCC2 [Example 116, (S)-5-(2-(2-methylazetidin-1-yl)-6,7-dihydro-5H-cyclopenta[d]pyrimidin-4-yl)isophthalamide]
- IC50 (human KHK-A): 54.6 nM
- IC50 (human KHK-C): 39.8 nM

SMILES: CC1=C(c2nc3c(c(-c4ccc(C(N)=O)cc4)n2)CCC3)CCC1=O [Example 117, 4-(2-(2-methyl-3-oxocyclopent-1-en-1-yl)-6,7-dihydro-5H-cyclopenta[d]pyrimidin-4-yl)benzamide]
- IC50 (human KHK-A): 4780 nM
- IC50 (human KHK-C): 3780 nM

SMILES: C[C@H]1CCN1c1nc2c(c(-c3ccc4c(O)n[nH]c4c3)n1)CCC2 [Example 120, (S)-6-(2-(2-methylazetidin-1-yl)-6,7-dihydro-5H-cyclopenta[d]pyrimidin-4-yl)-1H-indazol-3-ol]
- IC50 (human KHK-A): 46.1 nM
- IC50 (human KHK-C): 42.7 nM

SMILES: C[C@H]1[C@H](O)CN1c1nc2c(c(-c3ccc4c(c3)CN(C)C4=O)n1)CCC2 [Example 194, 5-[2-[(2S,3R)-3-hydroxy-2-methyl-azetidin-1-yl]-6,7-dihydro-5H-cyclopenta[d]pyrimidin-4-yl]-2-methyl-isoindolin-1-one]
- IC50 (human KHK-A): 308 nM
- IC50 (human KHK-C): 219 nM

SMILES: C[C@H]1[C@H](F)CN1c1nc2c(c(-c3ccc(S(N)(=O)=O)cc3)n1)CCC2 [Example 198, 4-[2-[(2S,3R)-3-fluoro-2-methyl-azetidin-1-yl]-6,7-dihydro-5H-cyclopenta[d]pyrimidin-4-yl]benzenesulfonamide]
- IC50 (human KHK-A): 124 nM
- IC50 (human KHK-C): 98.3 nM
